Measurements as given in ChEMBL document CHEMBL1201862, “PubChem BioAssay data set” (2004).
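Exposure lasted 48 hours, with cells grown in 96-well plates and compounds tested at five concentrations. GI50 is the concentration that inhibits growth by half.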 Active and inactive are the calls of the source. No stated cut-off is given here; in the data, active = GI50 up to about 1.1 µM and inactive = higher.

How the values were obtained:
Assay in all cases: NCI anticancer screen, dose series, 48 h
[1] = tested on: IGROV-1
[2] = tested on: HCC 2998
[3] = tested on: TK-10
[4] = tested on: NCI-H460
[5] = tested on: OVCAR-8
[6] = tested on: BT-549
[7] = tested on: SK-OV-3
[8] = tested on: SR
[9] = tested on: MDA-N
[10] = tested on: ACHN
[11] = tested on: HL-60
[12] = tested on: MCF7
[13] = tested on: MDA-MB-231
[14] = tested on: CAKI-1
[15] = tested on: K562
[16] = tested on: SK-MEL-2
[17] = tested on: PC-3
[18] = tested on: DU-145
[19] = tested on: NCI/ADR-RES

Measured: GI50

COC1C(OC(=O)c2ccc(C)[nH]2)C(O)C(Oc2ccc3c(O)c(NC(=O)c4ccc(O)c(CC=C(C)C)c4)c(=O)oc3c2Cl)OC1(C)C (stereo not given)
inactive: [1] 15.5 µM | [2] 18.1 µM | [3] 55.3 µM | [4] 21.2 µM | [5] 17.9 µM | [6] 17 µM | [7] 20.4 µM | [8] 22.5 µM | [9] 23 µM | [10] 38.3 µM | [11] 26.3 µM | [12] 18.4 µM | [13] 21.1 µM | [14] 18.7 µM | [15] 29.6 µM | [16] 13.2 µM | [17] 12.9 µM | [18] 31 µM

N=C(CC/C(N)=N/O)NO
inactive: [1] > 100 µM | [2] > 100 µM | [3] > 100 µM | [19] > 100 µM | [4] > 100 µM | [6] > 100 µM | [8] > 100 µM | [9] > 100 µM | [10] > 100 µM | [13] > 100 µM | [14] > 100 µM | [15] > 100 µM | [16] > 100 µM | [17] > 100 µM | [18] > 100 µM

C/C(=C\CO)CC[C@@H]1[C@@]2(C)CCCC(C)(C)[C@@H]2CC[C@@]1(C)O
inactive: [1] 17 µM | [2] 16 µM | [3] 17.5 µM | [19] 17.1 µM | [4] 17.3 µM | [5] 16.2 µM | [6] 18.3 µM | [7] 21.3 µM | [9] 18.7 µM | [10] 34.2 µM | [11] 20.5 µM | [12] 17.1 µM | [13] 17.3 µM | [14] 28.6 µM | [15] 16.5 µM | [16] 17.6 µM | [17] 16.4 µM | [18] 18 µM

NC(=O)c1sc2nc3ccccc3n2c1N
inactive: [1] 51.5 µM | [2] 86.7 µM | [3] 42.7 µM | [19] > 100 µM | [5] 65.8 µM | [6] 14.4 µM | [7] 27.2 µM | [9] > 100 µM | [10] 59.8 µM | [11] > 100 µM | [12] > 100 µM | [13] 24.9 µM | [14] 92.7 µM | [16] 30.2 µM | [17] > 100 µM | [18] 84.9 µM

CN(C)/C=N\c1cccc2cnccc12
inactive: [1] > 100 µM | [3] > 100 µM | [19] > 100 µM | [5] > 100 µM | [6] > 100 µM | [7] > 100 µM | [8] > 100 µM | [9] > 100 µM | [10] > 100 µM | [11] > 100 µM | [12] > 100 µM | [13] > 100 µM | [14] > 100 µM | [15] > 100 µM | [16] > 100 µM | [17] > 100 µM | [18] > 100 µM

CSc1[nH]cnc1C(N)=S
inactive: [1] > 100 µM | [3] > 100 µM | [19] > 100 µM | [5] > 100 µM | [6] > 100 µM | [7] > 100 µM | [9] > 100 µM | [10] > 100 µM | [11] > 100 µM | [12] > 100 µM | [13] > 100 µM | [14] > 100 µM | [16] > 100 µM | [17] > 100 µM | [18] > 100 µM

COc1ccc(C2OCCN2C)cc1 (stereo not given)
inactive: [1] > 100 µM | [3] > 100 µM | [19] > 100 µM | [4] 87.1 µM | [5] > 100 µM | [6] > 100 µM | [7] > 100 µM | [8] > 100 µM | [9] > 100 µM | [10] > 100 µM | [12] > 100 µM | [13] > 100 µM | [14] > 100 µM | [15] > 100 µM | [16] > 100 µM | [17] > 100 µM

CC1=C/C(=N\O)C(C(O)(C(F)(F)F)C(F)(F)F)C(C)(C)C1 (stereo not given)
inactive: [1] > 10 µM | [2] > 10 µM | [3] > 10 µM | [19] > 10 µM | [4] > 10 µM | [5] > 10 µM | [6] > 10 µM | [7] > 10 µM | [8] > 10 µM | [9] > 10 µM | [10] > 10 µM | [12] > 10 µM | [13] > 10 µM | [14] > 10 µM | [15] > 10 µM | [17] > 10 µM | [18] > 10 µM

CN(C)Cc1cc(C(C)(C)C)cc(CNC2CCCCC2)c1O
inactive: [1] 29.4 µM | [2] 11.6 µM | [3] 27.7 µM | [19] 25.2 µM | [4] 20.4 µM | [6] 76.7 µM | [7] 30.7 µM | [8] 19.7 µM | [9] 83.8 µM | [10] 42.9 µM | [12] 29.4 µM | [13] 42.3 µM | [14] 44.6 µM | [15] 22.1 µM | [16] > 100 µM | [17] 24.6 µM | [18] 40.9 µM

COc1cc([C@@H]2c3cc4c(cc3[C@@H](c3c(O)cc(O)c5c3O[C@H](c3ccc(O)c(O)c3)[C@H](OC(=O)c3cc(O)c(O)c(O)c3)C5)[C@H]3COC(=O)[C@H]23)OCO4)cc(OC)c1OC
inactive: [1] 27 µM | [2] 20.2 µM | [3] > 100 µM | [19] 33 µM | [4] 7.33 µM | [5] 7.1 µM | [6] > 34.4 µM | [7] 9.46 µM | [8] 2.69 µM | [9] 3.07 µM | [10] 1.33 µM | [12] 3.75 µM | [13] 4.52 µM | [14] 13.8 µM | [15] 4.78 µM | [16] 11.7 µM | [17] 5.28 µM | [18] 22.7 µM

Cc1cc2c(cc1Cl)SC(NNC(=O)c1ccco1)=NS2(=O)=O
inactive: [1] > 10 µM | [2] > 10 µM | [3] > 10 µM | [19] > 10 µM | [4] > 10 µM | [5] > 10 µM | [6] > 10 µM | [7] > 10 µM | [9] > 10 µM | [10] > 10 µM | [11] > 10 µM | [12] > 10 µM | [13] > 10 µM | [14] > 10 µM | [15] > 10 µM | [16] > 10 µM | [17] > 10 µM | [18] > 10 µM

O=C1C=C(O)C(=O)c2c(O)ccc(O)c21
inactive: [1] > 100 µM | [2] > 100 µM | [3] > 100 µM | [19] > 100 µM | [4] > 100 µM | [5] > 100 µM | [6] > 100 µM | [7] > 100 µM | [9] > 100 µM | [10] > 100 µM | [11] 58.5 µM | [12] > 100 µM | [13] > 100 µM | [14] > 100 µM | [15] > 100 µM | [16] > 100 µM | [17] > 100 µM | [18] > 100 µM

C=C1C(=O)OC2/C=C(\C)C(O)CC(O)C(C)(O)CC(OC(=O)/C(C)=C/C)C12 (stereo not given)
inactive: [1] 31.7 µM | [2] 34.9 µM | [3] > 67.5 µM | [4] 32.1 µM | [5] 32.5 µM | [6] 26.1 µM | [7] 53.5 µM | [9] 37.3 µM | [10] 39.2 µM | [11] 39.9 µM | [12] 56.8 µM | [13] 49.5 µM | [14] 29 µM | [15] 32.6 µM | [16] 43.1 µM | [17] 46.1 µM | [18] 34.3 µM

O=c1c2cc(Cl)cc(Cl)c2oc2nc3n(c(=O)c12)CCCS3
inactive: [1] > 100 µM | [2] > 100 µM | [3] > 100 µM | [19] > 100 µM | [4] > 100 µM | [6] 47.6 µM | [7] > 100 µM | [8] > 100 µM | [9] > 100 µM | [10] > 100 µM | [12] 70.5 µM | [13] > 100 µM | [14] > 100 µM | [15] 76 µM | [16] > 100 µM | [17] > 100 µM | [18] > 100 µM

OC(Cc1ccc2ccccc2n1)(C(F)(F)Cl)C(F)(F)Cl
inactive: [1] > 10 µM | [2] > 10 µM | [3] > 10 µM | [19] > 10 µM | [4] > 10 µM | [5] > 10 µM | [6] > 10 µM | [7] > 10 µM | [8] > 10 µM | [9] > 10 µM | [10] > 10 µM | [12] > 10 µM | [13] > 10 µM | [14] > 10 µM | [15] > 10 µM | [17] > 10 µM | [18] > 10 µM

COc1ccc(-c2oc3ccc(C)cc3c(=O)c2O)cc1
inactive: [1] > 100 µM | [2] > 100 µM | [3] 32.1 µM | [19] 35.4 µM | [5] 23.1 µM | [6] > 100 µM | [7] > 100 µM | [9] > 100 µM | [10] 31.9 µM | [11] 58.7 µM | [12] > 100 µM | [13] 71.4 µM | [14] > 100 µM | [16] > 100 µM | [17] > 100 µM | [18] > 100 µM
